Reference: article PMC10746280, “Bacterial efflux pump modulators prevent bacterial growth in macrophages and under broth conditions that mimic the host environment” (mBio, 2023)

Assays:
[1] = tested on: RAW 264.7 macrophages; test: SAFIRE macrophage assay: host toxicity (adherent macrophage count, morphology); assay type: cell-based
Method in brief: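 RAW 264.7 macrophages infected with S. Typhimurium SL1344 sifB::gfp (MOI ~30), gentamicin 40 µg/mL, then compound from 2 h to 18 h post-infection. Confocal imaging with MitoTracker and DAPI; toxicity as adherent MitoTracker-positive macrophage count, bacterial load as GFP+ macrophage area.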

[2] = biological target: T1, E. coli AcrB (Escherichia coli, UniProt P31224); test: Single-particle cryo-EM of AcrB-EPM complexes in nanodiscs; conditions: "binding" protomer of the AcrB trimer; 10 µM EPM
T1 construct: 4xHis (C); made in house; host or cells: E. coli BL21-Gold (DE3), plasmid derived from pSPORT1
Method: To elucidate at high resolution how the EPM analogs interact with AcrB, we used cryo-electron microscopy (cryo-EM). We overproduced and purified the E. coli AcrB protein containing a 6×His tag at the C-terminus and reconstituted the protein into lipidic nanodiscs ([17]). We incubated the AcrB-nanodisc samples with the parent compound or with one of three structurally dissimilar EPMs analogs (CU032, CU232, CU244) to form AcrB-EPM complexes. We then solved single-particle cryo-EM structures of these complexes to resolutions between 2.63 and 2.82 Å (Table 2; Fig. 3).
AcrB was purified from E. coli BL21(DE3)ΔacrB/pSPORTΩacrB cells and reconstituted into lipidic nanodiscs. To assemble AcrB into nanodiscs, a mixture containing 10 µM AcrB, 30 µM membrane scaffold protein (1E3D1), and 900 µM E. coli total extract lipid was incubated for 15 min at room temperature. After, 0.8 mg/mL prewashed Bio-Beads (Bio-Rad) was added. The resultant mixture was incubated for 1 h on ice, followed by overnight incubation at 4°C. The protein-nanodisc solution was filtered through 0.22 µm nitrocellulose filter tubes to remove the Bio-Beads. To separate free nanodiscs from AcrB-loaded nanodiscs, the filtered protein-nanodisc solution was purified using a Superose six column (GE Healthcare) equilibrated with 20 mM Tris-HCl (pH 7.5) and 100 mM NaCl. Fractions corresponding to the size of the trimeric AcrB-nanodisc complex were collected for cryo-EM ([46]). We then incubated 0.6 mg/mL AcrB-nanodisc with 10 µM EPM for 2 h and solved structure of the AcrB-EPM complex using single-particle cryo-EM to a resolution of 2.20 Å.

[3] = 5 uM compound, n=1, DMSO solvent control = 100
[4] = 25 uM compound, n=1, DMSO solvent control = 100

T1 sequence (P31224 whole entry): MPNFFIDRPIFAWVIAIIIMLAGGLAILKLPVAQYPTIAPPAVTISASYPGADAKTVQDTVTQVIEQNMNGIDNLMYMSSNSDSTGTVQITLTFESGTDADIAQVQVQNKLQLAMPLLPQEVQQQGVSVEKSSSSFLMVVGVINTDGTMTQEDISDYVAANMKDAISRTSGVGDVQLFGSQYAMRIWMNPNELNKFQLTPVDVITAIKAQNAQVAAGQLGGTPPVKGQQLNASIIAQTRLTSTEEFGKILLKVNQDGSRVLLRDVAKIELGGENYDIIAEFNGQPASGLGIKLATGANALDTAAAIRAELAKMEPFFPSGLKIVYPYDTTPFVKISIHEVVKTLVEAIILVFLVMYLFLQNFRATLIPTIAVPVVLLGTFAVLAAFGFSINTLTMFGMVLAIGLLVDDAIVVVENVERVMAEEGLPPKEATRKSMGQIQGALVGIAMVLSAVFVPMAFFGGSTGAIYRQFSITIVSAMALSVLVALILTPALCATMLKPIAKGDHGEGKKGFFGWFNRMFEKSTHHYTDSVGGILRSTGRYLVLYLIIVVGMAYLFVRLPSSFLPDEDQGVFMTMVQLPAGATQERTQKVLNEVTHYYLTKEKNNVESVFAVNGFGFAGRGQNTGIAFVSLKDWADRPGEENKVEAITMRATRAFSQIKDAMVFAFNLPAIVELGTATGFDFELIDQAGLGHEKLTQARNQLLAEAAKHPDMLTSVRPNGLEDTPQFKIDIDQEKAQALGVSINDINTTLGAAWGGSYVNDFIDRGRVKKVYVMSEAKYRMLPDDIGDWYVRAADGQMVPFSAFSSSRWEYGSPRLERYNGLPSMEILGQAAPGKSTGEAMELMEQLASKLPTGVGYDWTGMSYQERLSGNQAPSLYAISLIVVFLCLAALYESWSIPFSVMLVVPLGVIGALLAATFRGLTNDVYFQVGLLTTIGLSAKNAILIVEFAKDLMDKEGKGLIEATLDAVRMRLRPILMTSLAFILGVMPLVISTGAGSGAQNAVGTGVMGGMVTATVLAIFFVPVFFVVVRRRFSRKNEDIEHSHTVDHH

## NC1CCN(CC(O)COc2ccc(Cl)c(Cl)c2)C1 (centres unmarked) [CU032]
[1]; 5 uM
  5 uM Avg Cell # Score: 95
[1]; 25 uM
  25 uM Avg Cell # Score: 95
[2]
  binding site in AcrB (cryo-EM): distal drug-binding pocket

## NC1CCN(CC(O)COc2cccc(C(F)(F)F)c2)CC1 (centres unmarked) [CU232]
[1]; [3]
  5 uM Avg Cell # Score: 124
[1]; [4]
  25 uM Avg Cell # Score: 113
[2]
  binding site in AcrB (cryo-EM): distal drug-binding site

## OC(CN[C@H]1[C@@H]2CNC[C@@H]21)COc1cc(Cl)cc(Cl)c1 (some centres unmarked) [CU244]
[1]; [3]
  5 uM Avg Cell # Score: 121
[1]; [4]
  25 uM Avg Cell # Score: 108
[2]
  binding site in AcrB (cryo-EM): distal drug-binding site

## OC(COc1ccc(Cl)c(Cl)c1)CN1CCC(Nc2nccc(C(F)(F)F)n2)CC1 (centres unmarked) [EPM35]
[1]; 5 uM
  5 uM Avg Cell # Score: 98
[1]; 5 uM, listed as CU035
  5 uM Avg Cell # Score: 107
[1]; 25 uM
  25 uM Avg Cell # Score: 72
[1]; 25 uM, listed as CU035
  25 uM Avg Cell # Score: 134
[2]
  binding site in AcrB (cryo-EM): distal drug-binding pocket
